The record followed here is US8658791B2, “2-substituted-6-amino-5-alkyl, alkenyl or alkynyl-4-pyrimidinecarboxylic acids and 6-substituted-4-amino-3-alkyl, alkenyl or alkynyl picolinic acids and their use as herbicides” (Dow AgroSciences, LLC, priority 2007, dated 2014).

For series [1], the system named is lambsquarter (Chenopodium album). Description: General postemergence herbicidal activity, CHEAL. It is filed as in vivo. The following applies: Chenopodium album, post-emergence, 336 h, postemergence spray, visual score after 14 days, 0 = no injury, 100 = complete kill, read-out: Post-emergent Weed Control CHEAL. An outline of the steps:
(§1)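 Greenhouse-grown plants at the first or second true leaf stage are sprayed at 187 L/ha and kept 14 days, watered from below to prevent wash-off. Percent injury (0–100) is judged by eye against untreated plants.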

Series [2] deals with rice (Oryza sativa). Description: General preemergence herbicidal activity, ORYSA. It is filed as in vivo. Particulars: 140 g ai/ha, applied to soil surface, visual score after 20-22 days, 0 = no injury, 100 = complete kill or no emergence, read-out: Pre-emergent Weed Control ORYSA. The source says:
(§2) Seeds of the desired test plant species were planted in a soil matrix prepared by mixing a loam soil (43 percent silt, 19 percent clay, and 38 percent sand, with a pH of about 8.1 and an organic matter content of about 1.5 percent) and sand in a 70 to 30 ratio. The soil matrix was contained in plastic pots with a surface area of 127 square centimeters. When required to ensure good germination and healthy plants, a fungicide treatment and/or other chemical or physical treatment was applied. A weighed amount, determined by the highest rate to be tested, of each test compound was placed in a 25 mL glass vial and was dissolved in 6 mL of a 97:3 v/v (volume/volume) mixture of acetone and DMSO to obtain concentrated stock solutions. […] The stock solutions obtained were diluted with 18 mL of a 0.1% v/v aqueous solution of Tween® 20 surfactant to obtain spray solutions containing the highest application rate. Additional application rates were obtained by serial dilution of 12 mL of the high rate solution into a solution containing 3 mL of 97:3 v/v mixture of acetone and DMSO and 9 mL of the 0.1% v/v aqueous solution of Tween® 20 surfactant to obtain 1/2X, 1/4X, 1/8X and 1/16X rates of the high rate. Compound requirements are based upon a 12 mL application volume at a rate of 187 L/ha. Formulated compounds were applied to the soil surface with an overhead Mandel track sprayer equipped with a […] nozzles calibrated to deliver 187 L/ha over an application area of 0.503 square meters at a spray height of 18 inches (43 cm) above the soil surface. Control pots were sprayed in the same manner with the solvent blank. The treated pots and control pots were placed in a greenhouse maintained with an approximate 15 hour photoperiod and temperatures of about 23-29° C. during the day and 22-28° C. during the night. Nutrients and water were added on a regular basis and supplemental lighting was provided with overhead metal halide 1000-Watt lamps as necessary. The water was added by top-irrigation. After 20-22 days, the condition of the test plants that germinated and grew as compared with that of the untreated plants that emerged and grew was determined visually and scored on a scale of 0 to 100 percent where 0 corresponds to no injury and 100 corresponds to complete kill or no emergence.

Series [3] concerns wild poinsettia (Euphorbia heterophylla). The experiment in a line: General postemergence herbicidal activity, EPHHL. It is filed as in vivo. The following applies: Euphorbia heterophylla, post-emergence, 336 h, postemergence spray, visual score after 14 days, 0 = no injury, 100 = complete kill, read-out: Post-emergent Weed Control EPHHL. The gist of the method:
as §1

The subject of series [4] is barnyardgrass (Echinochloa crus-galli). Description: General preemergence herbicidal activity, ECHCG. It counts as in vivo. The following applies: 140 g ai/ha, applied to soil surface, visual score after 20-22 days, 0 = no injury, 100 = complete kill or no emergence, read-out: Pre-emergent Weed Control ECHCG.
Text: as §2

Series [5] relates to velvetleaf (Abutilon theophrasti). Description: General preemergence herbicidal activity, ABUTH. It counts as in vivo. The following applies: 140 g ai/ha, applied to soil surface, visual score after 20-22 days, 0 = no injury, 100 = complete kill or no emergence, read-out: Pre-emergent Weed Control ABUTH.
Text: as §2

Series [6] deals with rice (Oryza sativa). Description: General postemergence herbicidal activity, ORYSA. It is filed as in vivo. The following applies: Oryza sativa, post-emergence, 336 h, postemergence spray, visual score after 14 days, 0 = no injury, 100 = complete kill, read-out: Post-emergent Weed Control ORYSA. An outline of the steps: as §1
In series [7] the test system is lambsquarter (Chenopodium album). Description: General preemergence herbicidal activity, CHEAL. It counts as in vivo. Particulars: 140 g ai/ha, applied to soil surface, visual score after 20-22 days, 0 = no injury, 100 = complete kill or no emergence, read-out: Pre-emergent Weed Control CHEAL.
Text: as §2

Series [8] deals with wild poinsettia (Euphorbia heterophylla). The experiment in a line: General preemergence herbicidal activity, EPHHL. Particulars: 140 g ai/ha, applied to soil surface, visual score after 20-22 days, 0 = no injury, 100 = complete kill or no emergence, read-out: Pre-emergent Weed Control EPHHL. It counts as in vivo.
Text: as §2

For series [9], the system named is barnyardgrass (Echinochloa crus-galli). The experiment in a line: General postemergence herbicidal activity, ECHCG. The following applies: Echinochloa crus-galli, post-emergence, 336 h, postemergence spray, visual score after 14 days, 0 = no injury, 100 = complete kill, read-out: Post-emergent Weed Control ECHCG. It is filed as in vivo. An outline of the steps: as §1

The test system of series [10] is velvetleaf (Abutilon theophrasti). The experiment in a line: General postemergence herbicidal activity, ABUTH. It is filed as in vivo. The following applies: Abutilon theophrasti, post-emergence, 336 h, postemergence spray, visual score after 14 days, 0 = no injury, 100 = complete kill, read-out: Post-emergent Weed Control ABUTH. The gist of the method: as §1

One may read the melting point as the temperature, or range, at which the solid turns liquid. `C=Cc1c(N)nc(-c2ccc(Cl)c(C(C)F)c2F)nc1C(=O)OC` (stereo not drawn) [Compound 14, 6-amino-2-(4-chloro-2-fluoro-3-(1-fluoroethyl)phenyl)-5-vinylpyrimidine-4-carboxylic acid methyl ester]: the melting point fell in the range of 144 to 147 °C. Moreover, the pest or weed control at 70 g/ha in series [1] (70 g ai/ha) is 100%. In addition, the plant injury at 140 g/ha in the series with rice (Oryza sativa) [2] was found to be 95%. Further, the pest or weed control at 70 g/ha in [3] (70 g ai/ha) is 100%. In series [4], the pest or weed control at 140 g/ha stood at 95%. The pest or weed control at 140 g/ha in [5] came out at 100%. For the same compound, in the series on rice (Oryza sativa) [6] (70 g ai/ha), the plant injury at 70 g/ha turned out to be 10%. Further, the pest or weed control at 140 g/ha in series [7] turned out to be 100%. Also, the pest or weed control at 140 g/ha in series [8] was found to be 100%. Also, the pest or weed control at 70 g/ha in [9] (70 g ai/ha) was 100%. Moreover, the pest or weed control at 70 g/ha in series [10] (70 g ai/ha) was 100%.

In turn, `C=Cc1c(N)cc(-c2ccc(Cl)c(OC)c2F)nc1C(=O)OC` [Compound 28, 4-Amino-6-(4-chloro-2-fluoro-3-methoxyphenyl)-3-vinylpyridine-2-carboxylic acid methyl ester] yielded a melting point of 118 to 121 °C. In addition, the pest or weed control at 280 g/ha in [1] (280 g ai/ha) was found to be 75%. Besides, in the series with rice (Oryza sativa) [2], the plant injury at 140 g/ha came to 20%. For the same compound, in series [3] (280 g ai/ha), the pest or weed control at 280 g/ha is 90%. Further, the pest or weed control at 140 g/ha in series [4] was determined as 70%. Besides, the pest or weed control at 140 g/ha in [5] is 95%. Moreover, the plant injury at 280 g/ha in the series on rice (Oryza sativa) [6] (280 g ai/ha) worked out at 0%. The pest or weed control at 140 g/ha in [7] came to 95%. Further, in series [8], the pest or weed control at 140 g/ha is 100%. For the same compound, in series [9] (280 g ai/ha), the pest or weed control at 280 g/ha stood at 75%. Also, in series [10] (280 g ai/ha), the pest or weed control at 280 g/ha is 85%.

As for `COc1c(Cl)ccc(-c2nc(N)c(C)c(C(=O)O)n2)c1F` [Compound 53, 6-amino-2-(4-chloro-2-fluoro-3-methoxyphenyl)-5-methylpyrimidine-4-carboxylic acid], the melting point was 201 to 203 °C. Besides, the pest or weed control at 140 g/ha in series [1] (140 g ai/ha) came to 100%. In addition, the plant injury at 140 g/ha in the series on rice (Oryza sativa) [2] turned out to be 0%. Moreover, the pest or weed control at 140 g/ha in [3] (140 g ai/ha) was determined as 100%. Also, the pest or weed control at 140 g/ha in [4] was 80%. Moreover, in series [5], the pest or weed control at 140 g/ha was 100%. Besides, the plant injury at 140 g/ha in the series on rice (Oryza sativa) [6] (140 g ai/ha) worked out at 0%. The pest or weed control at 140 g/ha in [7] is 100%. The pest or weed control at 140 g/ha in series [8] was 100%. Moreover, the pest or weed control at 140 g/ha in series [9] (140 g ai/ha) worked out at 90%. Further, the pest or weed control at 140 g/ha in [10] (140 g ai/ha) was 90%.
